Where two headings read alike, the source gives them in different places.
Tests used:
in vivo = details: for AUCINF D: mouse, i.v., HU308 2 mg/kg, RO6871304 0.5 mg/kg
Experimental: Mouse Pharmacokinetic Profiles
Male C57Bl/6 mice (Charles River, Fra nce) were used to study the pharmacokinetics of CB 2R ligands after i.v. and p.o. administration. Animals were up to 12 weeks of age. All animal studies in this section were performed at Hoffmann-La Roche and approved by the Federal Food Safety and Veterinary Office of the Swiss Confederation. Test compounds were formulated according to respective protocols either by dissolution (i.v.) or as aqueous suspensions in a glass potter until homogeneity was achieved (p.o.; formulated as a solution in ethanol/cremophor EL/ 0.9% NaCl (5%/5%/90%)). Formulations were injected i.v. using a 30G needle in the lateral tail vein of mice using a volume of 50 μL in the dose indicated. For p.o. applications, animals were gavaged using a volume of 100 μL in the dose indicated. At the following time points blood was drawn into EDTA: 0.08, 0.25, 0.5, 1, 2, 4, 7 h (for p.o. the first time point was omitted). Six animals were used for each compound.
Animals were distributed randomly over the time course and at each time point, a volume of 100 μL of blood was taken. Quantitative plasma measurement of the compound was performed by LC-MS/MS analysis. Pharmacokinetic analysis was performed using Phoenix WinNonlin 6.4 software using a non-compartmental approach consistent with the route of administration. For assessment of the exposure, Cmax, Tmax, and area under the curve (AUC) were determined from the serum concentration profiles. Parameters (clearance, […], T1/2) were estimated using nominal sampling times relative to the start of each administration. Co (initial concentration) was extrapolated from the first concentration measured following i.v. administration. […]

[1] = Octanol/water distribution coefficient (logD)
human CB2R = biological target: T1, human CB2R (Homo sapiens, UniProt P34972); experiment: cAMP assay, CHO cells expressing human CB2R; assay type: cell-based
T1 construct: bgal (beta-galactosidase fragment of the PathHunter system, named only in the cell line's name); host or cells: CHO-K1 (CHOK1hCB2_bgal)
T1 sequence (P34972 whole entry, the tested form may be a part): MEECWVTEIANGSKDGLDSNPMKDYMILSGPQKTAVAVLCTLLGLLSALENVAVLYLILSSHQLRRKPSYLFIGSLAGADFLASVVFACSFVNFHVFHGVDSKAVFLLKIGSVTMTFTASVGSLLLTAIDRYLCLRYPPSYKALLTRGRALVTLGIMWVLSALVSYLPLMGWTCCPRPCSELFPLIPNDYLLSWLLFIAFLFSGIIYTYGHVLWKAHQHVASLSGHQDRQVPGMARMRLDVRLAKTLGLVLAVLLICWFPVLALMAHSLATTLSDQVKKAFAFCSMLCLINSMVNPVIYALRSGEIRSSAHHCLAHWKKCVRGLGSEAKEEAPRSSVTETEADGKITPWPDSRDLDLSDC
Experimental: The effect of ligands on the forskolin-stimulated accumulation of cAMP was determined using the LANCE ULTRA cAMP kit as per the manufacturer’s instruction (Perkin-Elmer Life Sciences, Boston, MA, USA).
For human CB2R and CB1R, cAMP assays were performed using CHO cells stably expressing human CB2R or human CB1R (DiscoveRx, Fremont, CA, USA) using a cAMP-Nano-TRF detection kit (Roche Diagnostics, Penzberg, Germany). Cells were seeded 17–24 h prior to the experiment at a density of 3 × 10^4 cells per well in a black 96-well plate with clear flat bottom (Corning, Wiesbaden, Germany) and incubated in 5% CO2 at 37 °C in a humidified incubator. The growth medium was exchanged with Krebs Ringer bicarbonate buffer with 1 mmol/L 3-isobutyl-1-methylxanthine (IBMX), 0.1% fatty acid-free BSA and incubated at 30 °C for 60 min. Agonist was added to a final assay volume of 100 μL and the mixture was incubated for 30 min at 30 °C. The assay was stopped by the addition of 50 μL 3 × lysis reagent and shaken for 2 h at room temperature. The time-resolved fluorescence energy transfer was measured using an LF502 Nanoscan FLT (IOM, Berlin, Germany), equipped with a laser as excitation source. cAMP content was determined from the function of a standard curve spanning from 10 to 0.13 nmol/L cAMP. Efficacies are expressed as percent relative to 1 µM CP55940.

mouse CB2R = mouse CB2R (Mus musculus, UniProt P47936); set-up: bgal (beta-galactosidase fragment of the PathHunter system, named only in the cell line's name); host or cells: CHO-K1 (CHOK1mCB2_bgal); details: * previously published; read-out: mouse CB2R: cAMP EC50; cited from earlier work
Sequence of mouse CB2R (P47936 whole entry, the tested form may be a part): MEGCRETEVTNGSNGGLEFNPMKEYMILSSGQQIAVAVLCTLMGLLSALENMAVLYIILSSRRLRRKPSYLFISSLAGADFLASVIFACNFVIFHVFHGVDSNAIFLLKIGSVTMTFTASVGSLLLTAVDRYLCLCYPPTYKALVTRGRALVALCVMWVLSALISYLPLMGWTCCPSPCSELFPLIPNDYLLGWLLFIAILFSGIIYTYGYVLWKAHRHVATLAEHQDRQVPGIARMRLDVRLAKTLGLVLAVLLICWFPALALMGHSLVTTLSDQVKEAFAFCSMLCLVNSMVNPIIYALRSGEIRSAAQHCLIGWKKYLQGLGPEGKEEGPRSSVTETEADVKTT

[2] = set-up: method as in earlier work; details: * previously published, cited from earlier work
[3] = male, C57Bl/6, mouse, in vivo, iv
[4] = male, C57Bl/6, mouse, in vivo, iv, 2 mg/kg

Compound: CCCCCCC(C)(C)c1cc(OC)c([C@H]2C=C(CO)[C@H]3C[C@@H]2C3(C)C)c(OC)c1 [HU308, {(1S,4S,5S)-4-[2,6-Dimethoxy-4-(2-methyloctan-2-yl)phenyl]-6,6-dimethylbicyclo[3.1.1]hept-2-en-2-yl}methanol, reference compound]
- half-life (in vivo; [3]): 2.15 h
- Vd (in vivo; [4]): 2.9 L/kg
- clearance (in vivo; [4]): 36.6 mL/min/kg
- AUCINF D (in vivo): 456 ng·kg·h/mL/mg
- logD ([1]; octanol/water, pH 7.4): 4.29

Compound: CCCCCCC(C)(C)c1cc(OC)c(C2=C[C@H]3CC[C@]2(CO)C3(C)C)c(OC)c1 [HU910, {(1S,4R)-2-[2,6-dimethoxy-4-(2-methyloctan-2-yl)phenyl]-7,7-dimethylbicyclo[2.2.1]hept-2-en-1-yl}methanol, reference compound]
- hCB1R cAMP EC50/hCB2R cAMP EC50 (human CB2R): >2500
- LogD (at pH 7.4) [1]: out of range

Compound: CNC(=O)[C@@H](NC(=O)c1cc(OCC2(C)COC2)c(C2CC2)cn1)C(C)(C)C [RO6851228, 5-Cyclopropyl-N-[(2S)-3,3-dimethyl-1-(methylamino)-1-oxobutan-2-yl]-4-[(3-methyloxetan-3-yl)methoxy]pyridine-2-carboxamide]
- EC50 (mouse CB2R): 4 nM
- pKa (basic) [2]: 3.3

Compound: Cc1nc([C@](C)(CC2CC2)NC(=O)c2cc(OCC(F)(F)F)c(C3CC3)cn2)no1 [RO6871085, 5-Cyclopropyl-N-[(2S)-1-cyclopropyl-2-(5-methyl-1,2,4-oxadiazol-3-yl)propan-2-yl]-4-(2,2,2-trifluoroethoxy)pyridine-2-carboxamide]
- EC50 (mouse CB2R): 3 nM
- pKa (acidic, calculated) ([2]; calculated): 10.1
- pKa (basic, calculated) ([2]; calculated): 2.6

Compound: CC(C)(C)c1nc(N2CC[C@H](O)C2)c2nnn(Cc3nnnn3C3CC3)c2n1 [RO6871304, (3S)-1-{5-tert-butyl-3-[(1-cyclopropyl-1H-tetrazol-5-yl)methyl]-3H-[1,2, 3]triazolo[4,5-d]pyrimidin-7-yl}pyrrolidin-3-ol]
- half-life (in vivo; [3]): 0.32 h
- AUCINF D (in vivo): 456 ng·kg·h/mL/mg
- hCB1R cAMP EC50/hCB2R cAMP EC50 (human CB2R; functional selectivity): >10,000

Source: publication PMC6767236, “Selective Cannabinoid 2 Receptor Agonists as Potential Therapeutic Drugs for the Treatment of Endotoxin-Induced Uveitis” (Molecules, 2019)
